{"source": "paper PMC9598407", "about": "“Identification of Staphylococcus aureus Penicillin Binding Protein 4 (PBP4) Inhibitors” (Antibiotics, 2022)", "key": {"[1]": {"biological_target": "recombinant Bacillus subtilis PBP4 (Bacillus subtilis, UniProt P40750)", "sequence (P40750 22-624)": "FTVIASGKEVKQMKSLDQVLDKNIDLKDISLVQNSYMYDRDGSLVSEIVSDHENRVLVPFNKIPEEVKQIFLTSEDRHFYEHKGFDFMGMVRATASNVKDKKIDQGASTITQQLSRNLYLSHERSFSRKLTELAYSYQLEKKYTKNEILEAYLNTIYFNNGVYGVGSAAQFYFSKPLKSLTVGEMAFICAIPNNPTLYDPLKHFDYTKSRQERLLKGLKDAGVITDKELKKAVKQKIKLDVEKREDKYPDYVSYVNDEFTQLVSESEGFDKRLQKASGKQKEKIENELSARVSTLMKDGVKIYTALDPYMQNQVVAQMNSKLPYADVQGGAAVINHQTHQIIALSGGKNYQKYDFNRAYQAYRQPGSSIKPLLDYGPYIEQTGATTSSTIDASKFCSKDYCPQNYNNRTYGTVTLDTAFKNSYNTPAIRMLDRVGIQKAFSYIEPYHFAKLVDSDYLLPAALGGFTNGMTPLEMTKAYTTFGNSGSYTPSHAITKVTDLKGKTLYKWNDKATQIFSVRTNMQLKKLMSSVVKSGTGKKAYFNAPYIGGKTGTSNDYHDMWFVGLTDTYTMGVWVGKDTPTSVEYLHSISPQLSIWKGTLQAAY", "assay": "BOCILLIN FL fluorescence polarization displacement assay, PBP4", "format": "binding", "description": "To more directly evaluate whether 9314848 is likely to affect PBP4 function, the compound’s ability to bind recombinant PBP4 was measured using BOCILLIN FL fluorescence polarization displacement assays. The premise for the assay is that the fluorescence polarization of the fluorescently labeled β-lactam, penicillin V (BOCILLIN FL), will increase upon binding to its cognate target (i.e., PBP4). Further, compounds that bind PBP4 and inhibit its function would impede BOCILLIN FL binding thereby allowing us to assess the protein binding affinity of 9314848 using a simple fluorescence reduction assay.\nTo determine whether the assay is amenable to measuring the binding properties of a compound that is known to bind PBP4 vs. a compound that is not expected to bind the protein we performed fluorescence polarization assays in which PBP4 was preincubated with either the β-lactam ampicillin, or the aminoglycoside kanamycin.\nA dose response study was conducted (Figure 4B) in which PBP4 was preincubated with 0, 3.125, 6.25, 12.5, 25, or 50 µM of ampicillin, kanamycin, or 9314848.\nFirst, fluorescence polarization assays were performed as previously described, but with minor modifications. Briefly, the indicated amount of the putative PBP4 inhibitor or control antibiotic was incubated with 1 µM recombinant B. subtilis PBP4 or S. aureus PBP2a in potassium phosphate buffer (40 mM K2HPO4 and 10 mM KH2PO4) for 1 h in black 96-well microtiter plates (Corning Life Sciences, Corning, NY, USA). Following incubation, 1 µM (final concentration) BOCILLIN FL penicillin was added, and the mixture was incubated for 30 min. BOCILLIN FL fluorescence polarization was measured at (495 nm excitation and 545 nm emission) in a SpectraMax M5 multimode plate reader (Molecular Devices, San Jose, CA, USA). […] The resulting data were plotted as percentage BOCILLIN FL binding inhibition = (T/U) × 100; T = FL polarization of ((PBP4+ BOCILLIN FL) − (PBP4+ BOCILLIN FL + inhibitor compound)), U = FL polarization of ((PBP4 + BOCILLIN FL) − (BOCILLIN FL)). Second, gel electrophoresis and fluorescence detection was used to measure BOCILLIN FL labeling of PBP4 treated with the known PBP4 inhibitor cefoxitin (positive control), kanamycin (negative control) or 9314848 (test compound), as previously described but with minor modifications. Briefly, 1 µM of recombinant PBP4 was mixed with 0, 50, 500, 2000, or 5000 µM 9314848 or control antibiotic in 50 mM phosphate buffer (pH 7.4) and incubated at 37 °C for 30 min. Next 40 μM of BOCILLIN FL was added to the reaction mixture and incubated for an additional 30 min at 37 °C. Reactions were stopped by adding 5× SDS-PAGE gel loading dye, heated at 100 °C for 3 min and separated by electrophoresis in 12% SDS-PAGE (2 h, 120 Volts). BOCILLIN FL labeled PBP4 was imaged at λ = 365 nm using a BioRad Gel Doc EZ Imaging system and the gel was then subsequently stained with Bio-safe Coomassie Brilliant Blue stain (BioRad, Hercules, CA, USA) to measure the amount of protein present in each reaction condition and analyzed using NIH-ImageJ software. The percent BOCILLIN FL binding was calculated by first normalizing the protein present in each reaction condition to that of untreated control and subsequently applying each reaction’s protein normalization factor to each reaction’s fluorescent signal. The percentage BOCILLIN FL binding inhibition was then calculated as the normalized band intensity of antibiotic/compound treated sample as compared to the control sample (PBP4 + BOCILLIN FL in the absence of compound)."}, "[2]": {"test_system": "pbp4 expression in S. aureus CRB", "assay": "qRT-PCR of pbp4 transcript titers, CRB", "format": "cell-based, Staphylococcus aureus", "details": "25 µM compound, 3 h", "from_the_text": "Given that each of the six compounds appeared to affect PBP4-mediated antibiotic resistance, we considered that their effects may be modulated by either inhibiting the protein’s function or by reducing pbp4 expression, the latter of which may be readily overcome by regulatory mutations that could in-turn easily result in resistance. Thus, we sought to prioritize compounds that may affect the protein’s function and de-prioritize compounds that affect the protein’s expression. Quantitative real-time reverse transcriptase PCR (qRT-PCR) was used to measure the pbp4 transcript titers within USA300 and CRB cells following compound treatment (Figure 2). […] We chose to focus the remainder of our studies on 9314848 (Figure 3A) because the molecule appeared the more druggable and chemically tractable for downstream structure activity relationship studies.\nPBP4 transcript titers of bacterial cells exposed to putative PBP4 inhibitors were measured using real time quantitative PCR (RT-qPCR), as previously described. […] Bacterial RNA was amplified and measured using PerfeCTa SYBR Green FastMix and qScript cDNA SuperMix kits following the manufacturer’s recommendations (QuantaBio, Beverly, MA, USA). […]"}, "Pseudomonas aeruginosa": {"test_system": "Pseudomonas aeruginosa", "assay": "Ceftobiprole susceptibility with compound, Pseudomonas aeruginosa", "format": "cell-based", "details": "not shown", "description": "As a means to further evaluate whether the compound affects PBP4 activity a series of assays were performed."}}, "note": "“Also recorded” adds a separate entry of the source."}
{"smiles": "CC1CCN(C(=O)c2cccc(NC(=O)Nc3ccc(Cl)cc3)c2)CC1", "note": "[Compound 9314848]", "values": [{"measurement": "Binding to PBP4 at low concentration", "setting": "[1]; 3.125 µM and 6.25 µM", "value": "Minimal binding"}, {"measurement": "Reduction of BOCILLIN FL binding to PBP4", "setting": "[1]; 50 µM compound, fluorescence polarization", "value": "~ 66%"}, {"measurement": "Effect of preincubation on BOCILLIN FL binding to PBP4 (fluorescence polarization)", "setting": "[1]; 50 µM, 1 µM PBP4", "value": "limited fluorescence polarization"}, {"measurement": "IC50", "setting": "[1]; fluorescence polarization dose response 0-50 µM, read-out: IC50, PBP4 BOCILLIN FL binding inhibition", "value": 13.4, "unit": "µM"}, {"measurement": "pbp4 expression (mRNA titer, qRT-PCR)", "setting": "[2]", "value": "did not seem to affect pbp4 expression; also recorded: did not significantly impact pbp4 transcription"}, {"measurement": "Effect on ceftobiprole susceptibility", "setting": "Pseudomonas aeruginosa", "value": "no effect"}]}
